Data taken from PMC7048932, “Examining sterically demanding lysine analogs for histone lysine methyltransferase catalysis” (Scientific Reports, 2020).

Target: T1, GLP (Homo sapiens, UniProt Q9H9B1)
T1 construct: His6 (N); made in house; host or cells: E. coli BL21 (DE3)pLysS-rosetta
T1 sequence (Q9H9B1 1-1298): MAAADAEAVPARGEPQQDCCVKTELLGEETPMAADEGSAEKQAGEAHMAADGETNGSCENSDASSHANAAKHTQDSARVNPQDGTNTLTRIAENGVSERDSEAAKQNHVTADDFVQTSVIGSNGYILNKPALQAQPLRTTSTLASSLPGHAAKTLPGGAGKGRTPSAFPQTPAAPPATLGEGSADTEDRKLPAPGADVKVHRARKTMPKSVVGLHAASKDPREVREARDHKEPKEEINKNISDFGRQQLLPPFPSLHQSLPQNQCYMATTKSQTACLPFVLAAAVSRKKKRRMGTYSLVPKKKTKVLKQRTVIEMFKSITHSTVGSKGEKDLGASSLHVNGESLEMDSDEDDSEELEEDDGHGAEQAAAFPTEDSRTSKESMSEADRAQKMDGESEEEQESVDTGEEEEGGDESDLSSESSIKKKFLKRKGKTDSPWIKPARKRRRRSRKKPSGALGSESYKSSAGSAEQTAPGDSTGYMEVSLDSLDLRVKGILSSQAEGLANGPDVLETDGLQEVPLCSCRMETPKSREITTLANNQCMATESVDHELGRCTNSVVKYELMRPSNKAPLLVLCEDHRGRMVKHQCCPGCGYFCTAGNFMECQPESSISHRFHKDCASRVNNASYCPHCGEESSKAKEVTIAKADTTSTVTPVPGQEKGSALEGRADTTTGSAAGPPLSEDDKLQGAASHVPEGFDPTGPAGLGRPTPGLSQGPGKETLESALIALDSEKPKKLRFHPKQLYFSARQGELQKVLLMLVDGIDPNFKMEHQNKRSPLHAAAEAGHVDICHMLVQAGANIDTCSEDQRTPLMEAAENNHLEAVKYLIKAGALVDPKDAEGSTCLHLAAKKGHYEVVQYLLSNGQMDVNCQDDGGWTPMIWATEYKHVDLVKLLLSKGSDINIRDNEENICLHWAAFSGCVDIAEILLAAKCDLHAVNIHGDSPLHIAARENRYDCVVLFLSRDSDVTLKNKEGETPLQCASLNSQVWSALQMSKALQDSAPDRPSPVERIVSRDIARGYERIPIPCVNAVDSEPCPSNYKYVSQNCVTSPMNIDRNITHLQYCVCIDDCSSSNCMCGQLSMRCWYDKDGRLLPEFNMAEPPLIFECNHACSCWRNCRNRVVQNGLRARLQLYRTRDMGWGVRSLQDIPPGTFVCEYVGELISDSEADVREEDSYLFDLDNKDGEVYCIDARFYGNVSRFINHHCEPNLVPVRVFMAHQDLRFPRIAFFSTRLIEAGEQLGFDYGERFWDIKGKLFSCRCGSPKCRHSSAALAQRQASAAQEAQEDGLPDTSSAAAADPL
Assay: MALDI-TOF MS methylation assay of H3K9 peptides with GLP
Format: biochemical
Settings: peptide 100 µM, 37 °C
Procedure: MALDI-MS methyltransferases activity experiments were performed using a Bruker instrument in the reflectron positive mode. For regular methyltransferase standard conditions experiment which carried out in 30 µL total volume, the mixture contains peptide (100 µM), SAM (200 µM), SETD8 or SETD7 (2 µM), in assay buffer 50 mM Tris at optimal pH 8.0. In case of G9a and GLP, similar conditions were used, except (500 µM) of SAM was added to the reaction mixture. […] A 5 µL aliquot of the solution was mixed with 5 µL of MeOH, after which 5 µL of this mixture was mixed with 5 µL of α-cyano-4-hydroxycinamic acid matrix (CHCA, 5 mg/mL in 125:125 µL acetonitrile/water). The spots were placed on a stainless steel MALDI plate (MS 96 target ground steel BC of Bruker, Germany). The mass corresponding to one monomethylation observed as +14 Da, dimethylation observed as +28 Da and trimethylation observed as +42 Da. The enzymatic activity was determined by taking the peak areas of each methylation state, including all isotopes and adducts, and was annotated using FlexAnalysis software (Bruker Daltonics, Germany). […] Methylated peptide substrates were repeated five times and the unmethylated substrates were triplicated. Sequences of the examined peptides are given in (Supplementary Table 1).

[1] = GLP 10 µM, SAM 1 mM, 5 h, MALDI-MS

GLP-catalyzed methylation, result in words (GLP 2 µM, SAM 500 µM, 1 h, MALDI-TOF MS): traces detected
GLP-catalyzed methylation, result in words, increased GLP/SAM [1]: monomethylation
GLP-catalyzed monomethylation, increased GLP/SAM [1]: 55%
Substance: ARTKQTAR(Kba9)STGGKA [H3Kba9]
